The record followed here is US9102657B2, “Sodium salt of (R)-3-[6-amino-pyridin-3-yl]-2-(1-cyclohexyl-1H-imidazol-4-yl)-propionic acid” (Sanofi, priority 2011, dated 2015).

Series [1] can be described thus: Dynamic Vapor Sorption (DVS), moisture sorption/desorption isotherms at 25° C. The format is physicochemical. How it is done: Moisture sorption/desorption isotherms were recorded on a SPS11-10μ from Projekt Messtechnik (Ulm, Germany). One cycle was run at 25° C., in which the sample was first stepwise decreased to 0% Room humidity (RH) and then the relative humidity was stepwise increased from 0 to 95% and the weight of the sample was measured. Typical total measurement times for both cycles were about 20 to 30 hours.

Series [2] can be described thus: Chiral stability: solid stored at 40° C. and 75% RH, enantiomeric excess by chiral HPLC. The note with it: for Enantiomeric excess: storage condition (B): solid, 40° C. and 75% RH, 4 weeks; for chemical / chiral stability (in words): elevated temperature and humidity, storage 40° C. and 75% RH, sodium salt dihydrate.
Experimental: Enantiomeric excess was determined by chiral HPLC on a HPLC system containing a Quaternary HPLC pump (e.g. HP 1100), an auto sampler, an UV absorbance detector (e.g. DAD Agilent Technologies or other adequate HPLC-System) and a computer data acquisition system with suitable software (e.g. Dionex-Chromeleon). A Chirobiotic R, Supelco (Astec) (4.6×250 mm; 5 μm) column was used as stationary phase and a solution of 800 mL water, 1200 mL acetonitrile and 1.0 g ammoniumacetate was used as mobile phase. The flow rate was set to a value of 1.5 mL/minute and the oven temperature was set to 45° C. Detection was performed by absorbance of the compounds at 236 nm (UV) (bandwidth: 8 nm) and reference wavelength was set to 450 nm (bandwidth: 50 nm). Typical total run times were in the range of about 15 minutes. For sample preparation 50 mg of the substance were accurately weighed into a 10 mL volumetric flask and dissolved and diluted to volume with solvent (acetonitrile/water 50:50). For the HPLC analysis 5 μL of the sample were injected into the system.
Gradient used: Isograt (15 minutes 100% mobile phase A)

Regarding `Nc1ccc(CC(C(=O)O)c2cn(C3CCCCC3)cn2)cn1` (stereo not shown) [3-[6-amino-pyridin-3-yl]-2-(1-cyclohexyl-1H-imidazol-4-yl)-propionic acid], the “hygroscopicity, absorption or adsorption of water from the surrounding environment (in words)” value in series [1] is “hygroscopic”.

As to `Nc1ccc(C[C@@H](C(=O)O)c2cn(C3CCCCC3)cn2)cn1` [Example 1, (R)-3-[6-amino-pyridin-3-yl]-2-(1-cyclohexyl-1H-imidazol-4-yl)-propionic acid], the Enantiomeric excess in series [2] and in series [2] (listed as (R)-3-[6-amino-pyridin-3-yl]-2-(1-cyclohexyl-1H-imidazol-4-yl)-propionic acid) was 91.6% each time.

With `Nc1ccc(C[C@@H](C(=O)[O-])c2cn(C3CCCCC3)cn2)cn1.[Na+]` [Example 3, (R)-3-[6-amino-pyridin-3-yl]-2-(1-cyclohexyl-1H-imidazol-4-yl)-propionic acid sodium salt dihydrate], the “hygroscopicity, absorption or adsorption of water from the surrounding environment (in words)” value in series [1] is “favorable reduced absorption or adsorption of water molecules”. Besides, the “sorption and desorption isotherms (in words)” value in series [1] (DVS 25° C., between 30% relative humidity and 0.4% relative humidity) was “almost the same (low water uptake or water desorption)”. The results for the “chemical / chiral stability (in words)” value in series [2] (listed as sodium salt of (R)-3-[6-amino-pyridin-3-yl]-2-(1-cyclohexyl-1H-imidazol-4-yl)-pr) and in series [2] were “chemically stable” and “remain stable”, respectively.
